These results are taken from paper PMC3726599, “A Metabolically-Stabilized Phosphonate Analog of Lysophosphatidic Acid Attenuates Collagen-Induced Arthritis” (PLoS ONE, 2013).

Structures are written as SMILES.

The series is described as follows: Mouse pharmacokinetics, plasma BrP-LPA by HPLC-MS/MS. The class given is in vivo. The note with it: 10 mg/kg i.p. Here is the method:
BrP-LPA, LPA species (C14:0, C16:0, C18:0, C18:1 and C20:4) and LPC species (C14:0, C16:0, C18:0, C18:1 and C20:0) were measured in plasma with HPLC-ESI/MS/MS using RSLCnano system (Ultimate 3000) coupled in-line with an LTQ Orbitrap XL mass spectrometer (Thermo Scientific, Waltham, MA, USA). BrP-LPA and lipid (LPA, LPC) extraction from plasma was performed on ice according to the Folch method with minor modifications. Plasma samples (50 ul) were mixed with 950 ul PBS prior to extraction and spiked with the internal standard mix (17:1 LPA/LPC). Samples were extracted under neutral conditions with 4 ml of ice-cold CHCl3/CH3OH (2/1, v/v) followed by 2 ml of PBS-saturated ice-cold CHCl3/CH3OH (2/1, v/v). Each extraction step was followed by a 60 s vortex and a 1 min centrifugation step in a bench-top clinical centrifuge in a cold room at 4°C at 3,000 rpm. The lower chloroform organic phases from both neutral extraction steps were pooled and kept for LPC measurement. The remained aqueous phase was chilled on ice for 10 min and extracted twice with ice-cold acidified with acetic acid CHCl3/CH3OH (2/1, v/v) as above. The lower organic phases were pooled, neutralized to pH 6–7 (checked with pH paper as above) on ice and kept for LPA, BrP-LPA measurements. The kept neutral lower organic phase of neutral extraction and the neutralized acidified lower organic phase were evaporated to dryness. The resulting residues were resuspended in 0.15 ml of isopropanol and after brief vortex mixing the solution was transferred to the auto sampler vial. Recovery of LPA species was between 60% and 95%. Recovery of BrP-LPA was 70% and the recovery of LPC species was between 80% and 100%. […] The precursor ion mass was used for the quantification while lipid identity was confirmed by precursor ion fragmentation using collision induced dissociation (CID). […]
BrP-LPA was administered intraperitoneally (IP) at 10 mg/kg in water to 6–8 week old female mice. […] Plasma samples were then analysed for plasma ATX activity and BrP-LPA/LPA/LPC levels with the TOOS activity assay and HPLC-MS/MS respectively. […]

The Cmax is the highest concentration seen after dosing. Consider `CCCCCCCCCCCCCCCC(=O)OC[C@@H](O)CC(Br)P(=O)(O)O` (stereo partly drawn) [BrP-LPA, 1-bromo-3(S)-hydroxy-4-(palmitoyloxy)butyl-phosphonate], for which the Cmin (at 16 h) is 0.15 µM. Under “female mice”, this compound yielded a maximum concentration (Cmax) of 8 µM and a t1/2 of 50 min.
